# Reference: patent publication US20180221306A1, “PHARMACEUTICAL COMPOSITIONS OF 5-HYDROXY-2-METHYLNAPHTHALENE-1,4-DIONE” (PellFiCure Pharmaceuticals, Inc., priority 2016, published 2018)
# System: PTEN-P2/H2B-GFP mouse prostate cancer cells
# Test: IVM pseudo-orthotopic prostate chamber model, tumor size
# Conditions: for Combination efficacy: the drug in combination with Compound I administered orally
# Protocol: Male Nude mice (25-35 g body weight) are anesthetized (7.3 mg ketamine hydrochloride and 2.3 mg xylazine/100 g body weight, i.p.) and placed on a heating pad. Two symmetrical titanium frames are implanted into a dorsal skinfold, so as to sandwich the extended double layer of skin. A 15 mm full thickness circular layer is excised. The underlying muscle (M. cutaneous max.) and subcutaneous tissues are covered with a glass coverslip incorporated in one of the frames. After a recovery period of 2-3 days, prostate tissue and cancer cell spheroids are carefully placed in the chamber. Small circular Band Aids are applied on the backside of the chamber after surgery to prevent scratching. Before surgery, Buprenorphine (0.1 mg/kg) is given IP. After surgery Meloxicam is given in the drinking water for 4 days Meloxicam (5.0 mg/ml), is added at 35 μl per 100 ml of water to be medicated.
# Mice are anesthetized with 7.3 mg ketamine hydrochloride and 2.3 mg xylazine/100 g body weight, i.p. A lateral incision across the scrotum is made and the testes are individually ligated and excised. The wound is cauterized. The incision is then sutured and sealed with Nexaband® acrylic.
# Preparation of tumor spheroids: Liquid overlay plates were generated using 1% molecular biology grade agarose melted in cell culture medium and plated in round bottom 96 well plates at 50 ul/well. Tumor cells grown as pre-confluent monolayers were trypsinized and diluted to a final volume of 1,000,000 cells/ml. Viability was determined by Trypan blue. Cells were placed onto the cooled agarose (70 μl/well) and allowed to compact into spheroids for 24 hours. The spheroids were picked with a pipette and transferred into serum-free media for implantation in the chambers.
# IntraVital Microscopy (IVM) can be used to visualize tumors in animals and analyze various aspects of cancer physiology such as tumor vascularization, cell migration and metastasis. An advantage of IVM includes the real-time analysis of dynamic processes with single-cell resolution. IntraVital microscopy offers the possibility to follow tumor growth in a non-invasive, non-destructive manner. The application of IVM can be limited to animal models that bear visually accessible tumors. Therefore, the dorsal skinfold chamber model described above can be compatible with IVM. Using IVM can permit a number of parameters to be measured in living animals and as a function of time, including tumor growth, angiogenesis, infiltration by immune cells, tumor cell migration, mitosis (cell-division) and apoptosis (programmed cell death), all in the context of the host and in real time.
# Unless otherwise indicated, Compound I was administered by oral gavage in a sesame oil (Carrier A) formulation. Compound I was dissolved in DMSO then in oil at a concentration of 0.25 mg/ml (weight/volume) with a final DMSO concentration of 0.5% (vol/vol), and administered to mice at 1 mg/kg. In some experiments, Compound I dissolved in a mixture of poly-ethylene glycol/DMSO 30% (w/v) was administered via intra-peritoneal injection.
# The efficacy of the formulation of Compound I in Carrier A for oral administration was compared to the previous formulation of Compound I in poly-ethylene glycol (PEG) for intra-peritoneal injection (i.p.). These experiments were performed using Intra Vital Microscopy (IVM) in a pseudo-orthotopic prostate chamber model in which minced prostate tissue is grafted in chambers surgically placed in the dorsal skinfold of mice, and allowed to vascularize. Small tumor cells spheroids were then placed on the prostate tissue, creating a biologically relevant prostatic environment. The tumor cells that express fluorescent H2B-GFP and can be detected in situ and in real-time through the microscopy window of the dorsal chamber.
# Epithelial cell lines derived from the prostate tumor of a PTEN-null mouse were used. Mouse prostate cancer cells PTEN-P2 are heterozygous for PTEN deletion and do express protein PTEN.
Structure (SMILES),Combination efficacy,further results
"C[C@]12CC[C@H](O)CC1=CC[C@@H]1[C@@H]2CC[C@]2(C)C(c3cccnc3)=CC[C@@H]12 [Abiratcrone, (3β)-17-(pyridin-3-yl)androsta-5,16-dien-3-ol, reference compound]",Yes,
"CC(O)(CS(=O)(=O)c1ccc(F)cc1)C(=O)Nc1ccc(C#N)c(C(F)(F)F)c1 (stereo not drawn) [bicalutamide, N-[4-cyano-3-(trifluoromethyl)phenyl]-3-[(4-fluorophenyl)sulfonyl]-2-hydroxy-2-methylpropanamide, reference compound]",No,"Effect on tumor size, drug alone (bicalutamide alone, inhibited further tumor growth): did not result in a reduction of initial tumor size"
"C[C@]12C=CC(=O)N[C@@H]1CC[C@@H]1[C@@H]2CC[C@]2(C)[C@@H](C(=O)Nc3cc(C(F)(F)F)ccc3C(F)(F)F)CC[C@@H]12 [dutasteride, (5α,17β)-N-{2,5-bis(trifluoromethyl)phenyl}-3-oxo-4-azaandrost-1-ene-17-carboxamide, reference compound]",Yes,Tumor size relative to initial size (dutasteride alone): 120%
"CNC(=O)c1ccc(N2C(=S)N(c3ccc(C#N)c(C(F)(F)F)c3)C(=O)C2(C)C)cc1F [enzalutamide, (4-(3-(4-cyano-3-(trifluoromethyl)phenyl)-5,5-dimethyl-4-oxo-2-thioxoimidazolidin-1-yl)-2-fluoro-N-methylbenzamide), reference compound]",No,"Effect on tumor size, drug alone (enzalutamide alone): did not result in a reduction in tumor size"
"CCNC(=O)[C@@H]1CCCN1C(=O)[C@H](CCCNC(=N)N)NC(=O)[C@H](CC(C)C)NC(=O)[C@@H](CC(C)C)NC(=O)[C@H](Cc1ccc(O)cc1)NC(=O)[C@H](CO)NC(=O)[C@H](Cc1c[nH]c2ccccc12)NC(=O)[C@H](Cc1c[nH]cn1)NC(=O)[C@@H]1CCC(=O)N1 [leuprolide, 5-oxo-L-prolyl-L-histidyl-L-tryptophyl-L-seryl-L-tyrosyl-D-leucyl-L-leucyl-L-arginyl-N-ethyl-Lprolinamide acetate, reference compound]",Yes,"Effect on tumor growth, drug alone (leuprolide alone): arrested tumor growth after 15 days of treatment but did not decrease tumor sizes; Tumor size reached, relative to initial size (leuprolide alone (Lupron depot, 0.187 mg/mouse i.m. once)): 180%"
"CNC(=O)c1ccc2cc(C3(O)CCn4cncc43)ccc2c1 (stereo not drawn) [orteronel, 6-(7-Hydroxy-6,7-dihydro-5H-pyrrolo[1,2-c]imidazol-7-yl)-N-methyl-naphthalene-2-carboxamide, reference compound]",Yes,"Effect on tumor size, drug alone (orteronel alone): did not result in a reduction in tumor size"
